In patent US11058702B2 (EMEK, Inc., priority 2014, dated 2021):

How the values were obtained:
[1] = target: T1, human liver IPdR-aldehyde oxidase (Homo sapiens, UniProt Q06278); details: low concentrations
T1 sequence (Q06278 1-1338): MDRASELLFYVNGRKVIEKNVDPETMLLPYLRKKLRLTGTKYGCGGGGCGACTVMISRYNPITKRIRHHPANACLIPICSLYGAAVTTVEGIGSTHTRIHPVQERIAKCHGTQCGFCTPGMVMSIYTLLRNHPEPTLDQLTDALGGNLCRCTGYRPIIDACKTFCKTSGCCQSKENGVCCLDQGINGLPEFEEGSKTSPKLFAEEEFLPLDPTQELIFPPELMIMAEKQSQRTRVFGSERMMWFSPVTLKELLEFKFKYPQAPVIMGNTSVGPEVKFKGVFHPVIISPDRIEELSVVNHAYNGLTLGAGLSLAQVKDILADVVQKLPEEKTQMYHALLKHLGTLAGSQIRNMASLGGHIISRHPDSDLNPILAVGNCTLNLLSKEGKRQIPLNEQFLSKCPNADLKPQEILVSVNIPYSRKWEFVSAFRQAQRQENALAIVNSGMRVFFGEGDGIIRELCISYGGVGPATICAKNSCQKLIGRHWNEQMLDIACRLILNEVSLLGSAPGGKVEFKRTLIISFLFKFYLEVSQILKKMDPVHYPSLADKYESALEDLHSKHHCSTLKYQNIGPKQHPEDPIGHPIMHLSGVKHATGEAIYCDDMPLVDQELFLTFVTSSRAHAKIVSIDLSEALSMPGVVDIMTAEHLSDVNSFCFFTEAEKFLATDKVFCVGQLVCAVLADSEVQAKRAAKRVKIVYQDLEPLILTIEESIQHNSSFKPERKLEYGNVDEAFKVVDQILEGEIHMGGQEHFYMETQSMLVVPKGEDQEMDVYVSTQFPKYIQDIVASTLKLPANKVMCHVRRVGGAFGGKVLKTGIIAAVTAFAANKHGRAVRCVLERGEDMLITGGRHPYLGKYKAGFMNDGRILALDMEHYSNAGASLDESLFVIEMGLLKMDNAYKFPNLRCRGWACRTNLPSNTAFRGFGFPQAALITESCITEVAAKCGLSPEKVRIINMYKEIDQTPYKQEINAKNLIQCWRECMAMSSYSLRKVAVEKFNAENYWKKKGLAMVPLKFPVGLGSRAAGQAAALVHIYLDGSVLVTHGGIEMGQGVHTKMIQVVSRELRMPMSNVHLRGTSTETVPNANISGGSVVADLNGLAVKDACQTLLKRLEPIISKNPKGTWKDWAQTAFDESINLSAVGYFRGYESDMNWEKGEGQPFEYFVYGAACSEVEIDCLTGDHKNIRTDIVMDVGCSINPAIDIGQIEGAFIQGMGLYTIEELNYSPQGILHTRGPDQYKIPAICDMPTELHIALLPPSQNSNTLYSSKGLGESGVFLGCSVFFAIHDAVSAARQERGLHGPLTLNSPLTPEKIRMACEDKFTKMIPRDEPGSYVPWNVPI

[2] = test system: IPdR oxidase activity of human intestine cytosol
[3] = test system: locally advanced rectal cancer; details: cited from earlier work
head & neck cancers = details: cis-platin+definitive RT, cCR achieved; cited from earlier work

Structure (SMILES)	effect on human liver IPdR-aldehyde oxidase [1]	effect on human small intestine IPdR oxidase activity [2]	further results
Oc1ncnc2[nH]ncc12 [allopurinol]	not	not inhibited	
CCCCCOC(=O)Nc1nc(=O)n([C@@H]2O[C@H](C)[C@@H](O)[C@H]2O)cc1F [capecitabine]			pCR rate ([3]; neoadjuvant capecitabine+RT, Stage III rectal patients): 10-15%
N.N.[Cl][Pt][Cl] [cis-platin, cis-diamminedichloroplatinum II]			cure rate (head & neck cancers): approximately 60%
COc1ccc(C=O)cc1O [isovanillin]	inhibited	not inhibited	
CC1=CC(=O)c2ccccc2C1=O [menadione]		stimulated	
O=C1[O][Pt]2([NH][C@@H]3CCCC[C@H]3[NH]2)[O]C1=O [oxaliplatin]			effect on pCR rate when added during pre-operative RT+FP ([3]; with increased normal tissue complications): without any improvement in pCR rate
